Source: patent US6537744B1, “Use of biomarkers in saliva to evaluate the toxicity of agents and the function of tissues in both biomedical and environmental applications” (priority 1995, dated 2003)
“And” between values parts separate entries of the source, which are not always exact repeats. Equal entries are not always repeated.

Tests used:
[1] = test system: carboxylase in human saliva; test: Inhibition of carboxylase in human saliva (p-nitrophenylvalerate hydrolysis, 400 nm); type: biochemical; settings: for inhibition of carboxylase (in words): human saliva
Procedure: The carboxylase activity in saliva samples is monitored by the hydrolysis of p-nitrophenylvalerate to the readily detectable p-nitrophenol. The concentration of p-nitrophenol in the sample is measured spectrophotometrically at 400 nm, and the value is calculated from p-nitrophenol standard curve (Table 3 and FIG. 4). Values for carboxylase activity in saliva (nmol. min-1 per mL of saliva) are presented in Tables 4-8 and showing in FIG. 5 and FIG. 6. The average specific activity for carboxylase in human saliva is about 47 nmol min^−1 per mL.
The assay for carboxylase consists of 4 mL of tris-HCl buffer (pH 7.0) that contain 25 μL of p-nitrophenylvalerate (13.8 mg/mL of alcohol) and 50-500 μL of human saliva. […] In the inhibition study, the agent is incubated with saliva for about 15-20 minutes before the addition of p-nitrophenylvalerate. Organophosphate concentration is verified by gas chromatography using standard methods as described by Knaak et al. (1993).

[2] = test system: acetylcholinesterase in human saliva; test: Inhibition of acetylcholinesterase in human saliva (acetylthiocholine iodide/DTNB, 405 nm); type: biochemical; settings: for inhibition of acetylcholinesterase (in words): human saliva
Procedure: The hydrolysis of acetylthiocholine iodide (an analog of acetylcholine iodides) by the saliva enzyme or enzymes is measured by generating the yellow 5-thio-2-nitrobenzoate with an absorbance maximum at 405 nm. The rate of change of absorbance is directly proportional to acetylcholinesterase activity. In this procedure, 0.1-1 mL of saliva (3.261 mg protein/mL) is incubated with 100 μL of acetylthiocholine iodide (0.018M) (lot #10H0653 Sigma) for 30-180 minute at 37° C. in 4.0 mL phosphate buffer (pH 7.8). After the incubation, a 0.2 mL of DTNB is added and the sample is read at 405 nm. The enzyme activity is calculated from glutathione standard curve (Table 9 and FIG. 9). Values for AChE activity in human saliva and enzyme kinetics are presented in Tables 10-14 and show in FIG. 10 through FIG. 14.
The AChE specific activity in saliva is about 4 nmol minute^−1 per mL of saliva. […] The percent of enzyme inhibition by organophosphate is calculated and presented in Tables 13-14 and showing in FIG. 15.

[3] = 60 μg/mL, Test #2, 50 μL saliva, 20 min preincubation
[4] = 500 μg/ml, test #1, 200 μL saliva, 15 min preincubation, 37° C.
[5] = 240 μg of isofenphos in 4.0 mL, Test #2, 200 μL saliva, 37° C.
[6] = 22 μg/mL, Test #2, 50 μL saliva, 20 min preincubation
[7] = 29 μg/ml in Tris/Citrate, test #1, 200 μL saliva, 15 min preincubation, 37° C.

CCOP(=S)(NC(C)C)Oc1ccccc1C(=O)OC(C)C (centres unmarked) [Isofenphos, isofenphos]
% Act. [1, 3]: 92%
Absorb. at 400 nm for 65 min. [1, 3]: 2.0 and 1.1
Absorb. at 400 nm for 100 min. [1, 3]: 2.0 and 1.5
% Inhib. [1, 4]: 84%
Absorb. at 400 nm for 20 min. [1, 4]: .33
Absorb. at 400 nm for 60 min. [1, 4]: .75
inhibition of carboxylase (in words) [1]: inhibited
Absorb. at 405 nm for 50 min. [2, 5]: .41
Absorb. at 405 nm for 110 min. [2, 5]: .43
Absorb. at 405 nm for 165 min. [2, 5]: .51
Activity ([2]; 240 μg of isofenphos in 4.0 mL, Test #2, 200 μL saliva, 37° C. (no inhibitor: 1.14)): 1.02 nmol/min
inhibition of acetylcholinesterase (in words) [2]: inhibited

CCOP(=O)(OCC)Oc1ccc([N+](=O)[O-])cc1 [Paraoxon, paraoxon]
% Act. [1, 6]: 40%
Absorb. at 400 nm for 20 min. [1, 6]: .23
Absorb. at 400 nm for 100 min. [1, 6]: .76
% Inhib. [1, 7]: 99%
Absorb. at 400 nm for 20 min. [1, 7]: .03
Absorb. at 400 nm for 60 min. [1, 7]: .14
inhibition of carboxylase (in words) [1]: inhibited
inhibition of acetylcholinesterase (in words) [2]: inhibited
